Tests used:
[1] = 0.16 ionic strength and 25° C.; cited from earlier work
MPTP acute model mice [2] = experiment: Experiment 1: open field test, MPTP acute model (AN-490); type: in vivo, C57/BL/6J mice
Method: The MPTP neurotoxin was administered on day 0, with 4 IP injections (each injection contained 20 mg/kg, 5 ml/kg) in saline. The various treatments or saline were administered on days 0, 1, 2, 3, 6, 7, 13 and 16. Each group of mice (n=6) was subjected, on days 3, 6, 8 and 16, to the open field test, and the following parameters were scored: the distance moved (FIGS. 2A and 2B), velocity (FIGS. 2C and 2D), time spent immobile (FIGS. 2E and 2F) and time spent in a high level of mobility (FIGS. 2G and 2H; strong mobility) during a period of 20 minutes. FIGS. 2A, 2C, 2E and 2G present the data obtained for the control mice, mice treated with L-DOPA and mice treated with AN-490. FIGS. 2B, 2D, 2F and 2H present the data obtained for control mice or mice treated with MPTP, MPTP with L-DOPA and MPTP with AN-490.
(§1) Acute model: On day 1, C57/BL mice received 4× […] injections of 20 mg/kg MPTP-HCl (Sigma), dissolved in saline solution, at 2 hours intervals.
The open field test measures behavioral responses, locomotor activity, hyperactivity, and exploratory behaviors. Open field test is also used as a measure of anxiety. Mice tend to avoid brightly illuminated, novel, open spaces, so the open field environment acts as an anxiogenic stimulus and allows for measurement of anxiety-induced locomotor activity and exploratory behaviors. The apparatus for the open field test is a square (0.5×0.5 meter) made of white melamine. All activities were recorded by a video camera mounted above the open field and scored in real-time by a motion-recognition software package (Noldus, Holland) that detects and analyzes the movements of the animals. The video image of the open field arena was partitioned into equal-size squares zone. Total distance, average speed, rearing/elongation behavior, and time spent in various parts of the field (e.g. the border areas vs. mid-area) were measured. Testing was carried out in a temperature, noise and light controlled room.

MPTP acute model mice [3] = experiment: Experiment 3: RotaRod test, MPTP acute model (BL-1023*); type: in vivo, C57/BL/6J mice; details: day 12, after initiation of treatment, per os
Method: Mice were administered the following treatments: saline (Control), MPTP+saline (MPTP), MPTP+L-DOPA 30 mg/kg (MPTP+Dopa), MPTP+L-DOPA 30 mg/kg+GABA 18.4 mg/kg (MPTP+G+D) MPTP+BL1023* 48.4 mg/kg (MPTP+1023 30) and MPTP+BL-1023* 24.2 mg/kg (MPTP+BL1023 15). The MPTP neurotoxin was administered on day 0, with 4 IP injections (each injection contained 20 mg/kg, 5 ml/kg) in saline. The various treatments or saline were administered on day 7, 9, 11 and 13 (total of 4 treatments). Each group of mice (n=10) was subjected to the RotaRod test, on day 6 (before initiation of treatment, FIG. 9A) and day 12 (after initiation of treatment, FIG. 9B) and the observed average duration on Rod, tested three times, are presented.
as §1
RotoRod Test: The test measures and records motor coordination of rats and mice using the natural fear of falling motivation. RotoRod (San Diego Industries, San Diego, Calif., USA) was set on 16 rpm speed and accelerated to maximum speed of 25 rpm. The time until the mouse fall was measured up to maximum 4 minutes. The measurements were performed three times for each mouse and the average was calculated. […] When the animal falls from the rotating rod, the photo beams were broken and the Rota-Rod recorded the animal's latency to fall. […]

[4] = tested on: MPTP sub-acute model mice; experiment: Experiment 2: observed vitality signs (level of motion, fur appearance), MPTP sub-acute model; type: in vivo, C57/BL/6J mice; details: MPTP sub-acute model, per os treatment; as to Fur, observer 1: key: Split fur +; Shiny fur +++; as to Fur, observer 2: key: Split fur +; Shiny fur +++; as to Fur, observer 3: key: Split fur +; Shiny fur +++; as to Fur, observer 4: key: Split fur +; Shiny fur +++; as to Vitality, observer 3: key: slow motions +; normal motion +++; as to Vitality, observer 4: key: slow motions +; normal motion +++
Text: FIG. […] 6 hereinabove. Six independent observers estimated the level of mice vitality by the level of motion of the mice (light purple, marked vitality) and fur appearance (dark purple). The results are an average of the observers' reports.

[5] = tested on: MPTP-Induced Parkinson's Disease Model in Mice; experiment: Example 2: MPTP acute toxicity model, tyrosine hydroxylase immunoreactive cells in the SNpc; type: in vivo, mice strain C57/bl; details: day 7, MPTP 4 x 20 mg/kg IP day 0, S.C once daily days 0-7, 40 mg/kg L-DOPA or equimolar
Method: Mice were administered 4 injections IP of MPTP (each injection contained 20 mg/kg, 5 ml/kg) or saline alone (control) at 2 hours intervals on day 0. Mice were then administered subcutaneously test solutions (TI) (either saline, L-DOPA or BL-1023) once daily throughout the 8 successive treatment days (days 0-7). On day 7, the mice were sacrificed and their brains were removed for immunohistochemistry analysis of the number of tyrosine hyroxylase immunostained cells at the level of the Substantia Nigra (SNpc).
Young adult (7-8 weeks old) male mice strain C57/bl were acclimated for one week prior to MPTP initiation. During acclimation and throughout the entire study duration, animals were housed within a limited access rodent facility and kept in groups of maximum 5 mice in polypropylene cages (23×17×14 cm), fitted with solid bottoms and filled with wood shavings as bedding material. Animals were provided ad libitum a commercial rodent diet and free access to drinking water, supplied to each cage via polyethylene bottles with stainless steel sipper tubes. […]
Immunohistochemistry staining was performed using Rabbit anti tyrosin hydroxylase (1:100). […] Quantitative analysis was effected by counting of immunoreactive cells at the widest dimension of the SNpc lateral to the roots of the third cranial nerve separating medial and lateral SNpc at the level of interpreduncular nucleus.

Structure (SMILES): N[C@@H](Cc1ccc(O)c(O)c1)C(=O)O [L-DOPA, 3,4-dihydroxy-L-phenylalanine]
- pKNH3 [1]: 9.42
- pKOH [1]: 8.97
- motility / motor activity in open field (MPTP acute model mice [2]; MPTP treated mice, L-DOPA 25 mg/kg or AN-490 67.5 mg/kg by oral gavage, days 3, 6, 8, 16): lower the motility
- motility in open field (distance moved, velocity, strong mobility, immobility) (MPTP acute model mice [2]; mice not treated with MPTP, L-DOPA 25 mg/kg per os, vs naïve mice or equimolar AN-490): tendency toward increase in motility
- latency in the rotarod test shortened by MPTP (MPTP acute model mice [3]): not attenuated
- Fur, observer 1 [4]: +++
- Fur, observer 2 [4]: +++
- Fur, observer 3 [4]: +++
- Fur, observer 4 [4]: +++
- Vitality, observer 3 [4]: +++
- Vitality, observer 4 [4]: +++
- Number of TH Cells [5]: 39

From patent US8722923B2, “Conjugates for treating neurodegenerative diseases and disorders” (Ramot at Tel-Aviv University Ltd., priority 2008, dated 2014)
